Experimental findings from patent US4652566A, “Benzofuran derivatives, processes for preparing the same and antihypertensive agents containing the same” (Kaken Pharmaceutical Co., Ltd., priority 1984, dated 1987) are described below.

Where a name gives a salt, the structure may show the parent alone.

The target in data set [1] is T1, α-adrenergic blockade (vas deferens specimen, contraction by noradrenalin) (Rattus norvegicus, UniProt P43140).
T1 construct: from tissue; host or cells: vas deferens of six-week-old male Wistar rat
T1 sequence (P43140 1-466): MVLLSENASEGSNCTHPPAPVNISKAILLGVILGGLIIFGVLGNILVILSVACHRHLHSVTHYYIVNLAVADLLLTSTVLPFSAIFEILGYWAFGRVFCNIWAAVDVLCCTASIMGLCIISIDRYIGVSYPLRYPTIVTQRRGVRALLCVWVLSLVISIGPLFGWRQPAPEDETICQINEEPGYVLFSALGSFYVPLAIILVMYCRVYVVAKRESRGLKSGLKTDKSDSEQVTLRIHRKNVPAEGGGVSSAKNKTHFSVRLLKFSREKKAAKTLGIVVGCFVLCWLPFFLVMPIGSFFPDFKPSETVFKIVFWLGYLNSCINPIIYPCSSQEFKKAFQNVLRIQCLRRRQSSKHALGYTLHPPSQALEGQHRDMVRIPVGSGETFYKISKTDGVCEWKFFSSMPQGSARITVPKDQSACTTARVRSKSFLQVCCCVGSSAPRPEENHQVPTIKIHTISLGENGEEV
Nature of the data set: α-Adrenergic blockade effect (contraction response by noradrenalin of vas deferens specimen, Magnus method). More on the design: species or system Wister male rat. The note with it: rat vas deferens; antagonism of noradrenalin contraction; pA2 = negative logarithm of antagonist dose shifting agonist curve two times; read-out: α-Adrenergic blockade effect, pA2 value (converted).

A short description of data set [2]: Antihypertensive effect and effect on heart rate in spontaneously hypertensive rat (SHR). The settings on record: po, single dose. Type of data set: in vivo. As to the method:
[Antihypertensive effect and effect on a heart rate on rat suffering from a spontaneously hypertensive rat (SHR)]
A blood pressure was measured under no anesthetic condition by means of an apparatus for recording a blood pressure of a tail artery and a heart rate (Riken Kaihatsu Co., Ltd.) (PS-802) and at the same time a heart rate was also measured.
Each of test compounds was dissolved or suspended in an aqueous solution containing 5% by weight of acasia and the obtained solution or suspension was administered once orally to SHR which had been kept under a fast condition for one night. A blood pressure and a heart rate were measured before administration and after one hour, three hours, five hours and seven hours of it and the maximum value of changes were calculated by comparing the value measured before administration with the value measured after administration.
For the purpose of a comparison, the same experiment as mentioned above was carried out on both Labetalol and Diltiazem as mentioned above.
With respect to a dosage, 100 mg/kg and 10 mg/kg as to compounds obtained by Examples 2, 5, 6, 9 and 18 to 23 were respectively administered, 100 mg/kg as to compounds obtained by Examples 1, 3, 4, 7 and 10 to 17 was respectively administered.

The nature of data set [3]: Accute toxicity test (LD50 value). The note with it: mouse, in vivo; mice; single oral administration; deaths by seventh day; Litchfield-Wilcoxon. The method, then:
[Accute toxicity test (LD50 value)]
The experiment was carried out using six weeks old ddy male mice.
Each of test compounds was suspended in an aqueous solution containing 5% by weight of acasia and the suspension was administered compulsorily once orally with a gastric probe. Within six hours after the start of the administration, the behavior of tested mice were observed consecutively. Thereafter, the observation was made at an interval of twenty four hours during 7 days and an accumulative number of deaths seventh day since the start of the administration was measured.
LD50 value was calculated according to the Litchfield-Wilcoxon method.

A short description of data set [4]: Increasing effect on a coronary blood flow (anesthetized dog). The note with it: administered once into perfusion channel. Format: in vivo. The method, then: [Increasing effect on a coronary blood flow]
Adult dog weighed 9 to 13 kg which was anesthetized intravenously with 30 mg/kg of pentobarbiturate was used for this experiment. The animal was cut open at a chest under a condition of an artificial respiration. After an intravenous injection of 1000 U/kg of heparin, a glass cannula was inserted into coronary ramus circumflexus by way of a left subclavina artery and a perfusion was carried out with blood introduced from a right carotid artery. A blood flow was measured by means of a electromagnetic flowmeter set up at a perfusion channel.
Each of test compounds was dissolved in a physiologic salt solution and the solution was administered once into a perfusion channel. An increase of a coronary blood flow was indicated as a percentage of an increasing rate.
For the purpose of a comparison, the same experiment as mentioned above was carried out on Papavelin which was commonly used as coronary vasodilator.

For data set [5], the target named is T2, calcium antagonism (thoracic aorta spiral specimen, contraction by calcium) (Cavia porcellus, UniProt O35505).
T2 construct: from tissue; host or cells: thoracic aorta spiral strip of male Hartley guinea pig
The data set is described as follows: Calcium antagonistic effect (contraction response by calcium of spiral thoracic aorta specimen, Magnus method). More on the design: species or system Hartly male giunea pig. The settings on record: guinea pig thoracic aorta; antagonism of calcium contraction; read-out: Calcium antagonistic effect, pA2 value (converted). As to the method:
[Calcium antagonistic effect]
Using a spiral blood vessel specimen taken from a thoracic aorta of Hartly male giunea pig weighed 400 to 600 g, a contraction response by calcium was measured as a dose-response curve according to Magnus method and the antagonistic activity for each test compound was indicated as above-mentioned pA2 value.

The mark [6] stands for this setting: 10 mg/kg, maximum over 1, 3, 5, 7 hours (Table 2).
The mark [7] stands for this setting: 100 mg/kg, maximum over 1, 3, 5, 7 hours (Table 2).
[8] abbreviates: 100 mg/kg, maximum over 1, 3, 5, 7 hours (Table 3).

T2 sequence (O35505 whole entry): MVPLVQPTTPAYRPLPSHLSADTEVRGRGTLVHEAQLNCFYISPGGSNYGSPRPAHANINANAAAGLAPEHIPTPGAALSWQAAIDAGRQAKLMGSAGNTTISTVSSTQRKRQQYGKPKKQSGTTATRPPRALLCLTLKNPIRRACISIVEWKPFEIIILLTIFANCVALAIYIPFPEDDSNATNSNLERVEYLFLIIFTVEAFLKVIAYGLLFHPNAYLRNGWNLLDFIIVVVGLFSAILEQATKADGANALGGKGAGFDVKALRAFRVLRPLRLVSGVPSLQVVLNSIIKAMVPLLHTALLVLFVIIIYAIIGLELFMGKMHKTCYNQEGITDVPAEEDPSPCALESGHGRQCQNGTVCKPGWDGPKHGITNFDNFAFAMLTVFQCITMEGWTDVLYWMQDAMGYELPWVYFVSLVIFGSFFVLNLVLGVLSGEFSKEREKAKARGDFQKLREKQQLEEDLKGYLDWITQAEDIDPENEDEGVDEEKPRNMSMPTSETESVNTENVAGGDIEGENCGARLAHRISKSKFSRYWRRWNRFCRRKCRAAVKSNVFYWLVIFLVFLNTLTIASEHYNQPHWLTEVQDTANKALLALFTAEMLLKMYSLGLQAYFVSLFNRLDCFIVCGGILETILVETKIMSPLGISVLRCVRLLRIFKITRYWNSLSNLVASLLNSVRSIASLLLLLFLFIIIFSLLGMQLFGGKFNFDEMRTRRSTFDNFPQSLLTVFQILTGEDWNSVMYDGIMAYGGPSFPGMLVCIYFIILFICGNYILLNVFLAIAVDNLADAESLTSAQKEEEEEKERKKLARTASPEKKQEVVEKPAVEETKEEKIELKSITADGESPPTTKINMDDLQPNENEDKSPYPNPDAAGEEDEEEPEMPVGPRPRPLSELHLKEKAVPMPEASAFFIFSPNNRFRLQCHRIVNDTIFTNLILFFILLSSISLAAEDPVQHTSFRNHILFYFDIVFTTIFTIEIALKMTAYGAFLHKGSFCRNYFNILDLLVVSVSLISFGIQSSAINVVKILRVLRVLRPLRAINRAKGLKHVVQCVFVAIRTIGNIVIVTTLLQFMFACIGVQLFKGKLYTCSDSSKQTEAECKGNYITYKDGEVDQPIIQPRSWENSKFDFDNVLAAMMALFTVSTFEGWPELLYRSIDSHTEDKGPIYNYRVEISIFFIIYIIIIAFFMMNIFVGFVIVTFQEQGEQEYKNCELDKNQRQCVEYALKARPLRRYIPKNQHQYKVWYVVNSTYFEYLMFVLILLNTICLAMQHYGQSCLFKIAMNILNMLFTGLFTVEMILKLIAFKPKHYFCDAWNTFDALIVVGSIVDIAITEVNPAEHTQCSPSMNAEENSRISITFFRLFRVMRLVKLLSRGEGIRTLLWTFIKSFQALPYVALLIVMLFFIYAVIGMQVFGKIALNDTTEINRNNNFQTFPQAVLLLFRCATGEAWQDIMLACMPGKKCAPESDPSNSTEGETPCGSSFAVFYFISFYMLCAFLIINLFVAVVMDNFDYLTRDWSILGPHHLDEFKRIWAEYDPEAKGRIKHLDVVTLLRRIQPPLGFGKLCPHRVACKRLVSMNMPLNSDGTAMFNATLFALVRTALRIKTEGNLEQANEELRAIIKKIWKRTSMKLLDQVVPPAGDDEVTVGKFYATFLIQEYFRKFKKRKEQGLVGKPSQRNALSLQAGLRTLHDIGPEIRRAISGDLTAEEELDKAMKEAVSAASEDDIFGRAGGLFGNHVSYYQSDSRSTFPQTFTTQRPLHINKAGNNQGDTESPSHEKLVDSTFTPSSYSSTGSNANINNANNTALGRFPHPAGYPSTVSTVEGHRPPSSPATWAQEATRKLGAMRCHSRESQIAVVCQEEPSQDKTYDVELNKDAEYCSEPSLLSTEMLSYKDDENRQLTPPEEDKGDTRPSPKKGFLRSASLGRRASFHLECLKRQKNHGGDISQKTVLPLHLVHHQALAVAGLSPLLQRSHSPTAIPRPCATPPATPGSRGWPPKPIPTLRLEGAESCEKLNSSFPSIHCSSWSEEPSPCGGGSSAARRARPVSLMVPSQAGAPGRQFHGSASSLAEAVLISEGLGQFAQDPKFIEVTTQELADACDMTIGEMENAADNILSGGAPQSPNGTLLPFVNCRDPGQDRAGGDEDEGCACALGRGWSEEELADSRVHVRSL

Regarding `COc1ccccc1N1CCN(CC(O)COc2cccc3cc(C(N)=O)oc23)CC1` (centres unmarked) [Ex. 9, 2-carbamoyl-7-{2-hydroxy-3-[4-(2-methoxyphenyl)-piperazinyl]propoxy}benzofuran], the Kb was 27.5 nM in data set [1] and 631 nM in data set [5]. Moreover, the results for the “Maximum value of change, heart rate” value in data set [2] (setting [6]) and in data set [2] (setting [7]) were -154.2 ± 17.3 beats/min and -69.2 ± 12.1 beats/min, respectively. Besides, the “Maximum value of change, systolic pressure” value in data set [2] (setting [6]) is recorded as -61.2 ± 4.3 mmHg; in data set [2] (setting [7]), -75.6 ± 2.4 mmHg. Further, the LD50 (commonly the dose expected to kill half of the subjects tested) at 168 h in data set [3] was more than 1500 mg/kg. The “Increasing rated of coronary blood flow when administered with a 1 mg” value in data set [4] stood at 105.6 ± 11.8%.
Consider `CC(=O)c1cc2cccc(OCC(O)CN3CCN(c4cccc(Cl)c4)CC3)c2o1` (centres unmarked) [Ex. 8 (HCl salt), 2-acetyl-7-{3-[4-(3-chlorophenyl)piperazinyl]-2-hydroxypropoxy}benzofuran], for which the Kb in data set [1] was 468 nM; in data set [5] it was 85.1 nM. For the same compound, in data set [2] (setting [8]), the “Maximum value of change, heart rate” value is reported as -98.4 ± 17.2 beats/min. Besides, in data set [2] (setting [8]), the “Maximum value of change, systolic pressure” value is listed as -44.2 ± 8.4 mmHg. The same compound returned an LD50 at 168 h in data set [3] of more than 1000 mg/kg. Moreover, the “Increasing rated of coronary blood flow when administered with a 1 mg” value in data set [4] is reported as 96.3 ± 13.1%.
